The values below come from patent publication US5342839A, “2-hydroxy-3-phenoxy-propyl-substituted piperazines, their preparation and use” (BASF Aktiengesellschaft, priority 1988, dated 1994).

A short description of experiment [1]: Protection from acute cerebral hypoxia (survival time of mice in 3.5 parts O2/96.5 parts N2). Conditions: female mice, i.p., hypoxia 3.5 parts oxygen/96.5 parts nitrogen; for ED50: Mus musculus, ip, read-out: Test 1 ED 50% (dose which increases survival time of the animals by 50%), hypoxia. It counts as in vivo. How it is done:
1. Protection from acute cerebral hypoxia
Female mice (weight 22-28 g) were placed in a glass tube (diameter 6 cm) through which was passed a mixture of 3.5 parts of oxygen and 96.5 parts of nitrogen. Untreated control animals survived 138 sec. on average in a glass tube of this type. The dose of active substances which, after intraperitoneal administration thereof, increases the survival time of the animals by 50% was determined.

Experiment [2] concerns the target T1, calcium channel (Cavia porcellus, UniProt A0A286X7I0).
T1 construct: guinea-pig skeletal muscle membranes; from tissue; host or cells: guinea-pig skeletal muscle membranes
Briefly: Affinity to the calcium channel: inhibition of specific (S)-3H-devapamil binding to guinea-pig skeletal muscle membranes. The conditions noted are these: 1 nM (S)-3H-devapamil, pH 7.4, 20° C., 60 minutes, read-out: Test 3 Ki. How it is done: 3. Affinity of the test substances to the calcium channel.
The affinity of the test substances to the calcium channel was determined by inhibition of the specific (S)-^3 H-devapamil binding to guinea-pig skeletal muscle membranes (FEBS Lett. 176, 371 (1984)). For this, the membranes were incubated with a fixed concentration of 1 nM (S)-^3 H-devapamil and increasing concentrations of test substance in 50 mM tris-HCl/0.1 mM phenylmethylsulfonyl fluoride, (pH 7.4) at 20° C. for 60 minutes. The non-specific binding was determined using 10^-6 M (S)-devapamil. The mixtures were then filtered through glass fiber filters, and the amount of (S)-^3 H-devapamil retained on the filter was determined by liquid scintillation measurement. The Ki values were determined by non-linear regression analysis.

Experiment [3] can be described thus: Protection from global cerebral ischemia (survival time of mice after MgCl2). Conditions: female mice, i.p., before 0.1 ml of 80% strength MgCl2.6H2O solution; for ED50: Mus musculus, ip, read-out: Test 2 ED 50% (dose which increases survival time of the animals by 50%), global ischemia. It is filed as in vivo. How it is done:
2. Protection from global cerebral ischemia
Female mice (weight 24-27 g) received the active substance intraperitoneally before administration of 0.1 ml of an 80% strength solution (g/l) of MgCl2.6H2 O. Untreated control animals survive 24 sec. on average after administration of MgCl2. The dose of active substances which increases the survival time of the animals by 50% compared with placebo-treated animals was determined.

A value given as a limit tells only on which side of the number the result lay.

T1 sequence (A0A286X7I0 1-1867): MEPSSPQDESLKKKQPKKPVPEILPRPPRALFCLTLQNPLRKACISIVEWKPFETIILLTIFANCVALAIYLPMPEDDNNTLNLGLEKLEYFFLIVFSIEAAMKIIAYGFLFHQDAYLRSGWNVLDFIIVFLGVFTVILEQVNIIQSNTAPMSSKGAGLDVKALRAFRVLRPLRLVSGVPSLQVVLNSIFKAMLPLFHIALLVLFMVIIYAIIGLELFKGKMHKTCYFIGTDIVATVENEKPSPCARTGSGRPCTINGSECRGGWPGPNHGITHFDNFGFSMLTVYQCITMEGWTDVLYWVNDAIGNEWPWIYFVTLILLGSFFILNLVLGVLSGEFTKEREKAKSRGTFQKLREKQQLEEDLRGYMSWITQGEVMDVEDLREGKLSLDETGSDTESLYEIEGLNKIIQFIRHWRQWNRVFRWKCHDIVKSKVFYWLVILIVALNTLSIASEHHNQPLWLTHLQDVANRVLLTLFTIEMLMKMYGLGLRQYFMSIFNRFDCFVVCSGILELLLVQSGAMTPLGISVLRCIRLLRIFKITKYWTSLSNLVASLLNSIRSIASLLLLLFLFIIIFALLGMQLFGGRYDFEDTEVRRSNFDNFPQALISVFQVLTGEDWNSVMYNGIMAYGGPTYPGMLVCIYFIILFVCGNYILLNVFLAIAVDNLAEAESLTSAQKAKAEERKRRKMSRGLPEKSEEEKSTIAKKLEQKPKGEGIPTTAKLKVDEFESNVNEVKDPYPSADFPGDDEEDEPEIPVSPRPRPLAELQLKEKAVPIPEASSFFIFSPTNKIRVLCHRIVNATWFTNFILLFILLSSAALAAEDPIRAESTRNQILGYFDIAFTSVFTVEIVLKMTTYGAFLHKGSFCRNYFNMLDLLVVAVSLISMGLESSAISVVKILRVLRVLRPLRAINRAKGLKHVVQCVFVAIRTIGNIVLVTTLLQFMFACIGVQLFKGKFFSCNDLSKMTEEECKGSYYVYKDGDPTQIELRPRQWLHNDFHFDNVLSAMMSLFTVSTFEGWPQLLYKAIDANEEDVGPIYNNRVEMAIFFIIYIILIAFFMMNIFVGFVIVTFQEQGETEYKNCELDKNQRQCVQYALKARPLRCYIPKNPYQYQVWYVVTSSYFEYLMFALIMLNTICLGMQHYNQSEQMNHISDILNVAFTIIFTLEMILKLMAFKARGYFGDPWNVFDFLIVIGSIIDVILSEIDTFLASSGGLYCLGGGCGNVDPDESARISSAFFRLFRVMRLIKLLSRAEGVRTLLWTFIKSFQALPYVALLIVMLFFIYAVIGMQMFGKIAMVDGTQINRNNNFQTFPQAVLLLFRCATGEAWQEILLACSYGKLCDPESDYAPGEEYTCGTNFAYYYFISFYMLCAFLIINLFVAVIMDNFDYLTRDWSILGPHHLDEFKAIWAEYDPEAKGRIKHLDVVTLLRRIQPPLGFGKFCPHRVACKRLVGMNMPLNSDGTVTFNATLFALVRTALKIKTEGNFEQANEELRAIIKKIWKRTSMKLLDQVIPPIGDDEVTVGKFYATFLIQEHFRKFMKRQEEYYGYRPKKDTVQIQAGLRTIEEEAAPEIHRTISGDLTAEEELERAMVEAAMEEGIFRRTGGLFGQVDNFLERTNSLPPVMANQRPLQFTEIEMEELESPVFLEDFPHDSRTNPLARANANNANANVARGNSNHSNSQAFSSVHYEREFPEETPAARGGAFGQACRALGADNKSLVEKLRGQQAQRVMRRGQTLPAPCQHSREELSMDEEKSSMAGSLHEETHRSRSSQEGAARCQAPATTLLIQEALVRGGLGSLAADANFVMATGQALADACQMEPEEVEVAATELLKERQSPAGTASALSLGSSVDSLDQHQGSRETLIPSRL

Turning to `Cc1cccc(C)c1NC(=O)CN1CCN(CCCC(c2ccc(F)cc2)c2ccc(F)cc2)CC1` [lidoflazine, reference compound], the ED50 in experiment [1] was 10 mg/kg; in experiment [3] it was over 46 mg/kg. For the same compound, in experiment [2], the Ki (in general, the equilibrium dissociation constant of an inhibitor or competing ligand from its target) came out at 20 nM.
The like results for `OC(COc1ccccc1)CN1CCN(CCCC(c2ccccc2)c2ccccc2)CC1` (centres unmarked) [Example 4, 1-[4,4-diphenylbutyl]-4-[2-hydroxy-3-phenoxypropyl]-piperazine] were, in that order, 6.6 mg/kg, 8.6 mg/kg and 18 nM.
The like results for `N#Cc1ccccc1OCC(O)CN1CCN(CCCC(c2ccc(F)cc2)c2ccc(F)cc2)CC1` (centres unmarked) [Example 17, 1-[4,4-bis(4-fluorophenyl)butyl]-4-[2-hydroxy-3-(2-cyanophenoxy)propyl]piperazine] were, in that order, 16 mg/kg, 27 mg/kg and 10 nM.
The like results for `OC(COc1ccc(Cl)c(Cl)c1)CN1CCN(CCCC(c2ccc(F)cc2)c2ccc(F)cc2)CC1` (centres unmarked) [Example 12, 1-[4,4-bis(4-fluorophenyl)butyl]-4-[2-hydroxy-3-(3,4-dichlorophenoxy)propyl]piperazine] were, in that order, 4.7 mg/kg, 45 mg/kg and 16 nM.
In the case of `OC(COc1ccc(F)cc1)CN1CCN(CCC(c2ccccc2)c2ccccc2)CC1` (single isomer, unassigned; (-)) [Example 31], the values for the ED50 in experiment [1] and in experiment [3] were 4.1 mg/kg and 9.3 mg/kg, respectively. Also, the Ki in experiment [2] was found to be 149 nM.
Regarding `OC(COc1ccccc1)CN1CCN(CCCC(c2ccc(F)cc2)c2ccc(F)cc2)CC1` (centres unmarked) [Example 3, 1-[4,4-bis(4-fluorophenyl)butyl]-4-[2-hydroxy-3-phenoxypropyl]piperazine], the ED50 is 10 mg/kg in experiment [1] and 13 mg/kg in experiment [3]. Further, the Ki in experiment [2] amounted to 8 nM.
As to `OC(COc1cccc(C(F)(F)F)c1)CN1CCN(CCCC(c2ccc(F)cc2)c2ccc(F)cc2)CC1` (centres unmarked) [Example 11, 1-[4,4-bis(4-fluorophenyl)butyl]-4-[2-hydroxy-3(3-trifluoromethylphenoxy)propyl]piperazine], the values for the ED50 in experiment [1] and in experiment [3] were 4.9 mg/kg and 46 mg/kg, respectively. Besides, the Ki in experiment [2] came to 8 nM.
For `O=[N+]([O-])c1ccc(OCC(O)CN2CCN(CCCC(c3ccc(F)cc3)c3ccc(F)cc3)CC2)cc1` (centres unmarked) [Example 16, 1-[4,4-bis(4-fluorophenyl)butyl]-4-[2-hydroxy-3-(4-nitrophenoxy)propyl]piperazine] the same measures were 5.5 mg/kg, 38 mg/kg and 11 nM.
`OC(CSc1ccccc1)CN1CCN(CCC(c2ccccc2)c2ccccc2)CC1` (centres unmarked) [Example 35]: the ED50 is 8.7 mg/kg in experiment [1] and 14 mg/kg in experiment [3]. The Ki in experiment [2] turned out to be 159 nM.
The like results for `OC(CSc1ccc(F)cc1)CN1CCN(CCCC(c2ccc(F)cc2)c2ccc(F)cc2)CC1` (centres unmarked) [Example 34, 1-[4,4-bis(4-fluorophenyl)butyl]-4-[2-hydroxy-3-(4-fluoro-thiophenoxy)propyl]piperazine] were, in that order, 9 mg/kg, 28 mg/kg and 9 nM.
For `OC(COc1ccc(F)cc1)CN1CCN(CCCC(c2ccc(F)cc2)c2ccc(F)cc2)CC1` (single isomer, unassigned; (-)) [Example 29, (-)-1[4,4-bis(4-fluorophenyl)butyl]-4-[2-hydroxy-3(4-fluorophenoxy)propyl]piperazine], the “Test 1 ED 50% (dose which increases survival time of the animals by 50%), hypoxia” value in experiment [1] is 1.6 mg/kg. Also, in experiment [2], the Ki amounted to 9 nM. In experiment [3], the “Test 2 ED 50% (dose which increases survival time of the animals by 50%), global ischemia” value is listed as 13 mg/kg.
`OC(COc1ccc(Cl)cc1)CN1CCN(CC(c2ccccc2)c2ccccc2)CC1` (centres unmarked) [Example 9, 1-[2,2-diphenylethyl]-4-[2-hydroxy-3-(4-chlorophenoxy)propyl]piperazine]: the ED50 was found to be 7.3 mg/kg in experiment [1] and 12 mg/kg in experiment [3]. For the same compound, the Ki in experiment [2] was 30 nM.
For `OC(COc1ccccc1)CN1CCN(CCC(c2ccccc2)c2ccccc2)CC1` (centres unmarked) [Example 7, 1-[3,3-diphenylpropyl]-4-[2-hydroxy-3-phenoxypropyl]piperazine] the same measures were 4.6 mg/kg, 10 mg/kg and 280 nM.
For `Fc1ccc(C(c2ccc(F)cc2)N2CCN(C/C=C/c3ccccc3)CC2)cc1` [flunarizine, reference compound], the values for the ED50 in experiment [1] and in experiment [3] were over 100 mg/kg and 26.5 mg/kg, respectively.
For the compound `OC(COc1ccc(F)cc1)CN1CCN(CCCC(c2ccc(F)cc2)c2ccc(F)cc2)CC1` (single isomer, unassigned; (+)) [Example 30, (+)-1[4,4-bis(4-fluorophenyl)butyl]-4-[2-hydroxy-3(4-fluorophenoxy)propyl]piperazine], in experiment [1], the “Test 1 ED 50% (dose which increases survival time of the animals by 50%), hypoxia” value was 4.0 mg/kg. Moreover, the inhibitory constant (Ki) in experiment [2] amounted to 10 nM. Further, the ED50 in experiment [3] is 17 mg/kg.
Consider `OC(COc1ccc(F)cc1)CN1CCN(CCCC(c2ccc(F)cc2)c2ccc(F)cc2)CC1` (centres unmarked) [Example 2, 1-[4,4-bis(4-fluorophenyl)butyl]-4-[2-hydroxy-3(4-fluorophenoxy)propyl]piperazine], for which the ED50 in experiment [1] worked out at 11 mg/kg; in experiment [3] it was 20 mg/kg. Moreover, the Ki in experiment [2] was determined as 9.1 nM.
For the compound `OC(COc1ccc(Cl)c(Cl)c1)CN1CCN(CCCC(c2ccccc2)c2ccccc2)CC1` (centres unmarked) [Example 23, 1-[4,4-diphenylbutyl]-4-[2-hydroxy-3-(3,4-dichlorophenoxy)propyl]piperazine], the ED50 in experiment [1] was 8.6 mg/kg; in experiment [3] it was 41 mg/kg. Also, the Ki in experiment [2] was 22 nM.
The like results for `OC(COc1ccc(F)cc1)CN1CCN(CCCC(c2ccccc2)c2ccccc2)CC1` (centres unmarked) [Example 22, 1-[4,4-diphenylbutyl]-4-[2-hydroxy-3-(4-fluorophenoxy)propyl]piperazine] were, in that order, 6 mg/kg, 8.8 mg/kg and 15 nM.
In the case of `Cc1ccc(C(CCCN2CCN(CC(O)COc3ccc(F)cc3)CC2)c2ccc(C)cc2)cc1` (centres unmarked) [Example 24, 1-[4,4-bis(4-methylphenyl)butyl]-4-[2-hydroxy-3-(4-fluorophenoxy)propyl]piperazine], the ED50 in experiment [1] turned out to be 23 mg/kg; in experiment [3] it was 40 mg/kg. Also, in experiment [2], the Ki worked out at 12 nM.
The like results for `OC(COc1ccc(F)cc1)CN1CCN(CCCC(c2cccc(F)c2)c2cccc(F)c2)CC1` (centres unmarked) [Example 27, 1-[4,4-bis(3-fluorophenyl)butyl]-4-[2-hydroxy-3-(4-fluorophenoxy)propyl]piperazine] were, in that order, 14 mg/kg, 29 mg/kg and 22 nM.
The like results for `OC(COc1ccc(Cl)cc1)CN1CCN(CCCC(c2ccc(F)cc2)c2ccc(F)cc2)CC1` (centres unmarked) [Example 1, 1-[4,4-bis(4-Fluorophenyl)butyl]-4-[2-hydroxy-3(4-chlorophenoxy)propyl]piperazine] were, in that order, 11 mg/kg, 27 mg/kg and 8 nM.
The like results for `OC(COc1ccc(Cl)cc1)CN1CCN(CCC(c2ccccc2)c2ccccc2)CC1` (centres unmarked) [Example 8, 1-[3,3-diphenylpropyl]-4-[2-hydroxy-3(4-chlorophenoxy)propyl]piperazine] were, in that order, 5 mg/kg, 13 mg/kg and 160 nM.
For the compound `OC(COc1ccc(F)cc1)CN1CCN(CCC(c2ccccc2)c2ccccc2)CC1` (single isomer, unassigned; (+)) [Example 32], in experiment [1], the “Test 1 ED 50% (dose which increases survival time of the animals by 50%), hypoxia” value came out at 4.2 mg/kg. The Ki in experiment [2] was 249 nM. The “Test 2 ED 50% (dose which increases survival time of the animals by 50%), global ischemia” value in experiment [3] is 9.5 mg/kg.
As to `OC(COc1ccc(F)cc1)CN1CCCN(CCCC(c2ccc(F)cc2)c2ccc(F)cc2)CC1` (centres unmarked) [Example 33, 1-[4,4-bis(4-fluorophenyl)butyl]-4-(2-hydroxy-3(4-fluorophenoxy)propyl]homopiperazine], the ED50 in experiment [1] came out at 4.8 mg/kg; in experiment [3], 31 mg/kg. Besides, the Ki in experiment [2] is 13 nM.
Regarding `OC(COc1ccccc1Cl)CN1CCN(CCCC(c2ccc(F)cc2)c2ccc(F)cc2)CC1` (centres unmarked) [Example 13, 1-[4,4-bis(4-fluorophenyl)butyl]-4-[2-hydroxy-3-(c-chlorophenoxy)propyl]piperazine], the “Test 1 ED 50% (dose which increases survival time of the animals by 50%), hypoxia” value in experiment [1] is given as 6.9 mg/kg. The Ki in experiment [2] turned out to be 10 nM. Moreover, the “Test 2 ED 50% (dose which increases survival time of the animals by 50%), global ischemia” value in experiment [3] is given as 39 mg/kg.
